Reference: PMC6934184, “Selective DNA-PKcs inhibition extends the therapeutic index of localized radiotherapy and chemotherapy” (The Journal of Clinical Investigation, 2019)

Target: T1, SRMS (Srm) (Homo sapiens, UniProt Q9H3Y6)
T1 construct: purchased Thermo Fisher Scientific (Life Technologies) SelectScreen
Experiment: SelectScreen Z'LYTE
Assay type: biochemical
Summary of the method: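 Percent values come from Thermo SelectScreen profiling of NU5455, combining activity and binding assays. CSF1R was run in Z'LYTE format at Km app ATP, and CAMK1 in Adapta format with ATP listed at 10.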

T1 sequence (Q9H3Y6 whole entry): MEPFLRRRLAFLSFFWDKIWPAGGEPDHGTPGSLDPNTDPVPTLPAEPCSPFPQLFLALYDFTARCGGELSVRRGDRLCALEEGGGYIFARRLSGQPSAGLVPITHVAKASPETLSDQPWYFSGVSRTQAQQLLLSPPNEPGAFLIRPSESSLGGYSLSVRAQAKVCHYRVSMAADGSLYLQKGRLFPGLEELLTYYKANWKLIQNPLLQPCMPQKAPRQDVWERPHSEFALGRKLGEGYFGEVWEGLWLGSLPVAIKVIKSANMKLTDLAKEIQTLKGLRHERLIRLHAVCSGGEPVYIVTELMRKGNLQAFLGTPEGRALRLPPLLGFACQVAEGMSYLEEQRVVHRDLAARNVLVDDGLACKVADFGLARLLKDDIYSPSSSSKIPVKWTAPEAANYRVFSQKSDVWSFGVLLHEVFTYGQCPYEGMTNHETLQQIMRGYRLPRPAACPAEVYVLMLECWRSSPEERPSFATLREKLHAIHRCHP

CN(C(=O)CN1CCOCC1)c1ccc2sc3c(-c4cccc5c(=O)cc(N6CC7CCC(C6)O7)oc45)cccc3c2c1 [NU5455]
inhibition at 1 µM: 7.5%
